Among the data in PubChem BioAssay AID1259321 (Sanford-Burnham Center for Chemical Genomics, 2017) are IC50 values, retold here.

The source made the active and inactive calls.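 The calls were made as follows: active = half-maximal concentration for changing protein binding to DNA, from the fitted dose curve, below 10 micromolar; inactive = the rest.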 Some results are limits rather than exact numbers.

The target in this assay is Nuclear receptor subfamily 1 group D member 1 (Homo sapiens) (UniProt P20393). Put plainly: Rev-erbα–DNA interaction modulators – biochemical, FITC-DNA, fluorescence polarization, dose response (AID 1259321). To be noted: Rev-erb alpha-FITC-DNA binding.
Nuclear receptor subfamily 1 group D member 1 (Homo sapiens), sequence (P20393 whole entry, looked up): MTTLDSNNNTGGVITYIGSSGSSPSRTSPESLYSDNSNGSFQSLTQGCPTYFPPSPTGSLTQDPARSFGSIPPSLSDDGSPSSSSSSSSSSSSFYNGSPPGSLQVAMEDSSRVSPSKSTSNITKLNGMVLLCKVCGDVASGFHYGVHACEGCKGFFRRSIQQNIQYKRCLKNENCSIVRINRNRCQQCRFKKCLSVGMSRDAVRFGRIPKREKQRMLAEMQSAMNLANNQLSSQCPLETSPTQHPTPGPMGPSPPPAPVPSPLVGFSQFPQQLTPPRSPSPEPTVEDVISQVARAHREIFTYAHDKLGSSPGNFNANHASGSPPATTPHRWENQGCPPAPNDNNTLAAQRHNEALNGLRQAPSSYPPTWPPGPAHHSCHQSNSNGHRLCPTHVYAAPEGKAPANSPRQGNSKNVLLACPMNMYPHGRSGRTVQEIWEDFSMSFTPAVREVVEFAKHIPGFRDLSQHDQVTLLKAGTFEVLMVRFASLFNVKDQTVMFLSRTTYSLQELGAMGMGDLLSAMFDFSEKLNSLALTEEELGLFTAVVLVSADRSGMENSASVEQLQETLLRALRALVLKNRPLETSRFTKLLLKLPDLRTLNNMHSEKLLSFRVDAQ
The term IC50 denotes the concentration that gives 50% inhibition. In the case of `CC(=O)Nc1ccc(O)c(-c2nc3ccccc3s2)c1`, the IC50 result was “inactive”.
The same measure for `O=c1cc(-c2ccccc2Cl)oc2c(NS(=O)(=O)c3cccs3)ccc(O)c12`: “inactive”; for `COc1ccc(-c2nn(C)c(=O)c3ccccc23)cc1NC(=O)COc1ccccc1`: 7.9 µM; for `CCCCOC(=O)CSc1nc(N)c(C#N)c(-c2ccc(OCC)cc2)c1C#N`: “inactive”.
The same measure for `Cc1coc2cc3oc(=O)c(Cc4ccccc4)c(C)c3cc12`: “inactive”; for `COC(=O)c1cccc(Cn2ccc3ccc(-c4ccc5ccn(C(=O)c6ccc(C)cc6)c5c4)cc32)c1`: > 40 µM (inactive).
In the case of `Cc1cccc2cc(C#N)c(SCC#N)nc12`, the IC50 was > 40 µM (inactive).
Regarding `Cc1cc(C)c2nc(SCC(=O)N(C)C3CCS(=O)(=O)C3)cc(C)c2c1` (stereo unspecified), the IC50 was 6.34 µM.
For the molecule `Oc1ccc(Br)cc1C1Nc2ccccc2S1` (stereo unspecified), the IC50 is 6.22 µM.
In the case of `Cc1ccc(-n2c(O)c(/C=N/c3ncc(Br)cc3Br)c(=O)[nH]c2=O)cc1`, the IC50 entry is “inactive”.
The result for `CCOc1ccc2nc(N/C(N)=N/C(=S)Nc3cccc(C)c3)nc(C)c2c1` reads 8.37 µM.
The same measure for `C/C(N)=C(/C#N)C(=O)CSc1nc2ccccc2c(=O)n1-c1ccc(C)c(Cl)c1`: > 40 µM (inactive).
The result for `Cc1ccc(-n2nc3c(N4CCC(C(=O)NCCc5cccs5)CC4)nnc(C)c3c2C)cc1` reads 6.89 µM; that for `Fc1cccc2sc(Nc3nc4cc5c(cc4s3)OCCO5)nc12`, “inactive”; that for `COc1cc(C(=O)NCc2ccc(-c3nc4ccccc4s3)cc2)cc(OC)c1OC`, > 40 µM (inactive).
Regarding `COc1ccc(CNC(=O)C2CCC(CNS(=O)(=O)c3cccc4nsnc34)CC2)cc1` (stereo unspecified), the IC50 was 8.16 µM.
The same measure for `O=C(Cc1sc(-c2ccccc2)nc1-c1ccccc1)Nc1ccc(Cl)cc1`: 3.2 µM; for `Cc1ccc2[nH]cc(/C=C/c3cc[n+](C)cc3)c2c1`: > 40 µM (inactive).
Regarding `COc1ccc(N2C(=O)c3cccc4c(N(C)CCO)ccc(c34)C2=O)cc1`, the IC50 result was “inactive”.
The same measure for `COc1ccc(C(C)=O)cc1CSc1nc2ccccc2c(=O)n1-c1cccc(C)c1`: 2.17 µM.
With `Cn1cncc1C#Cc1ccc2cc(C3(O)CCCCC3)oc(=O)c2c1`, the IC50 entry is “inactive”.
The same measure for `CCc1cc2cc(C)cc(C)c2nc1SCC(=O)N1CCCC1`: > 40 µM (inactive).
`COc1ccc2cc(C3CC(c4cccs4)=NN3C(C)=O)c(Cl)nc2c1` (stereo unspecified): the half-inhibitory concentration (IC50) is 2.88 µM.
The result for `COc1ccc(NC(=O)c2ccc(C(=O)c3cc(OC)ccc3OC)cc2)cc1` reads 1.67 µM; that for `Cc1cc(C)c(N=C2SCC(=O)N2Cc2ccco2)c(C)c1`, 7.22 µM; that for `Cc1ccc(-c2nc3c(c(=O)c4ccccc4n3C)c(=O)n2-c2ccc(F)cc2)cc1`, > 40 µM (inactive).
For the molecule `Cc1nc(-c2ccccc2)nc2[nH]c(-c3ccccc3)cc(=O)c12`, the IC50 result was “inactive”.
Consider `Cc1cc2nc3c(=O)n(CCc4ccccc4)c(=O)[nH]c3nc2cc1N`, for which the IC50 was > 40 µM (inactive).
As for `CCOC(=O)c1ccccc1NC(=O)c1cncc(Br)c1`, the IC50 was 7.27 µM.
Turning to `N#Cc1ccc(Oc2ccc(-c3nc4ccccc4nc3-c3ccccc3)cc2)cc1C#N`, the 50% inhibitory concentration (IC50) is 4.49 µM.
Consider `CCOC(=O)c1nn(-c2ccc(Cl)cc2)c2nc(-c3ccc(C)cc3)c(C#N)c(=O)n12`, for which the half-inhibitory concentration (IC50) was 2 µM.
With `COc1ccc(C(=O)c2c[nH]c(C(=O)NCc3cccs3)c2)cc1`, the IC50 is > 40 µM (inactive).
For `COc1ccc(-c2cc(C3CC3)nc(SCC(=O)c3cccs3)c2C#N)cc1`, the IC50 was 6.69 µM.
Turning to `Cc1ccc(C(=O)Nc2nc3ccccc3c(=O)s2)cc1`, the half-inhibitory concentration (IC50) is 0.599 µM.
The same measure for `O=c1c2ccccc2nc2sc3ccccc3n12`: > 40 µM (inactive); for `C=CCOc1ccc(C2C(C(=O)c3cccs3)=C(O)C(=O)N2c2nnc(C)s2)cc1` (stereo unspecified): 3.99 µM.
The same measure for `O=C1c2c(Br)c(Br)c(Br)c(Br)c2C(=O)N1c1ccccn1`: 8.24 µM; for `Cc1nc(NCCc2ccc(Cl)cc2)c2nnn(Cc3ccccc3)c2n1`: 1.91 µM; for `CCOC(=O)/C(=C\C=C1/Sc2cc(OCC)c(OCC)cc2N1CC)C(C)=O`: 5.55 µM.
The result for `Cc1cc(=O)oc2cc(OCC3CC(c4ccc(Cl)cc4)=NO3)ccc12` (stereo unspecified) reads 8.95 µM; that for `CCn1cc(C(=O)NCCc2ccccc2C)c(=O)c2ccc(C)nc21`, 1.16 µM; that for `CC(C)c1ccc(-c2c(C#N)c(N)nc(SCC(=O)N3CCCCC3)c2C#N)cc1`, 3.15 µM.
For the molecule `NS(=O)(=O)c1ccc(CCn2c(=S)[nH]c3ccc(F)cc3c2=O)cc1`, the IC50 was > 40 µM (inactive).
For the molecule `CN1C(=O)c2cc(NC(=O)Nc3ccccc3)ccc2OC[C@H]2O[C@@H](CC(=O)NC3CCC3)CC[C@@H]21`, the IC50 entry is “inactive”.
Consider `COC(=O)c1ccc(NC(=O)c2ccc3c(c2)C(=O)N(C)C3=O)cc1`, for which the IC50 is 4.43 µM.
The result for `Cc1ccc(C(=O)Nc2cccc(C(F)(F)F)c2)cc1NC(=O)c1nccn1C` reads 6.88 µM.
The same measure for `O=C(c1ccccc1)N1N=C(c2ccccc2O)CC1c1ccccc1` (stereo unspecified): 2.32 µM; for `COc1ccc2c(Cl)c(-c3nnc(SCC(=O)c4ccccc4)n3C)sc2c1`: 3.42 µM.
The result for `Cc1nc(N2CCN(c3ccccn3)CC2)c2c(C)c(C(=O)N3CCN(c4cccc(Cl)c4)CC3)sc2n1` reads > 40 µM (inactive); that for `Cc1cc(C)c2nc(SCC(=O)N3CC(=O)Nc4ccccc43)c(C#N)cc2c1`, 7.22 µM; that for `O=C(NCc1ccccc1)C(c1cc2ccccc2o1)n1c(=O)c(-c2ccccc2)nc2ccccc21` (stereo unspecified), > 40 µM (inactive).
For the molecule `Cc1ccc(C)c(-n2c(-c3ccc(Br)cc3)csc2=NC(=O)c2ccccc2F)c1`, the IC50 result was “inactive”.
The same measure for `CN1CCS/C1=C/C=C1/SC(=S)N(Cc2ccccc2)C1=O`: “inactive”.
As to `O=[N+]([O-])c1ccc2c(c1)Cc1cc(F)ccc1-2`, the 50% inhibitory concentration (IC50) was 9.46 µM.
The same measure for `Cc1[nH]nc2nc(SCC(=O)NCCC3=CCCCC3)n(-c3ccc(Br)cc3)c(=N)c12`: > 40 µM (inactive).
Take `Cc1ccc(OCC(=O)Nc2ccc(O)c(-c3nc4ccccc4o3)c2)cc1`: the IC50 is > 40 µM (inactive).
Consider `O=C(/C=C/c1cccc2ccccc12)NCCC1=CCCCC1`, for which the IC50 is > 40 µM (inactive).
As for `CC(C)CCN1C(=O)c2cccc3c(N)ccc(c23)C1=O`, the IC50 is 2.83 µM.
For `O=C(CCc1c[nH]c2ccccc12)NCCc1ccc(Cl)cc1`, the IC50 was > 40 µM (inactive).
The result for `CN(C)c1ccc(C=C2SC(=S)NC2=O)cc1` reads “inactive”; that for `COC(=O)Cn1c(=NC(=O)c2nc3ccccc3s2)sc2cc(S(C)(=O)=O)ccc21`, 0.402 µM.
The same measure for `Nc1ccc(-c2c3ccc(=O)cc-3oc3cc(O)ccc23)cc1C(=O)O`: 5.38 µM; for `Cc1coc(NC(=O)CSc2nc(-c3ccc(Cl)cc3)cc(C(F)(F)F)c2C#N)n1`: “inactive”; for `Cc1cc(C)c(NC(=O)CSc2nc3ncc(Br)cc3[nH]2)c(C)c1`: > 40 µM (inactive).
For the molecule `Cc1ccc(CNC(=O)c2cc3c(=O)n(C)c4ccccc4c3n2C)cc1`, the IC50 entry was “inactive”.
For the molecule `CN1C(=O)C(=Cc2ccc(N3CCOCC3)o2)C(=O)N(C)C1=O`, the IC50 was 1.36 µM.
Take `CCN1/C(=C/c2ccc3cc(C)ccc3[n+]2CC)Sc2ccccc21`: the IC50 is > 40 µM (inactive).
The same measure for `CNC(=O)c1ccsc1NC(=O)c1sc2ccccc2c1Cl`: “inactive”.
The same measure for `CC1(C)Cc2c(sc3c2c(N)nc(=S)n3Cc2ccccc2)CO1`: “inactive”.
For the molecule `CCOC(Cn1c(SCc2cc(C(C)=O)ccc2OC)nc2ccccc2c1=O)OCC`, the IC50 was 9.39 µM.
The same measure for `COCCN(Cc1cc2cc(C)ccc2n2nnnc12)C(=S)Nc1ccc(C)cc1`: “inactive”; for `CC1(C)Cc2nc3sc4c(SCC(=O)NC(c5ccccc5)c5ccccc5)ncnc4c3cc2CO1`: > 40 µM (inactive); for `CCCCc1nc2sc3c(SCCN(C)C)ncnc3c2c2c1CCC2`: 7.04 µM.
`O=c1ccc(-c2ccc(S(=O)(=O)N3CCN(c4cccc(Cl)c4)CC3)o2)n[nH]1`: the 50% inhibitory concentration (IC50) was 1.9 µM.
Take `O=C(NCc1ccccc1)C(c1cccc2ccccc12)n1c(=O)c(-c2ccccc2)nc2ccccc21` (stereo unspecified): the 50% inhibitory concentration (IC50) was 1.61 µM.
Consider `Cc1cc(C)c2cc(C#N)c(SCC(=O)Nc3ccc4c(c3)OCO4)nc2c1`, for which the IC50 was 7.14 µM.
As for `N#CCNC(=O)c1nn2c(C(F)(F)F)cc(-c3ccccc3)nc2c1Br`, the IC50 is 3.58 µM.
The result for `CCOC(=O)c1c(NC(=O)C2CCCN(S(=O)(=O)c3ccccc3)C2)sc2c1CCCC2` (stereo unspecified) reads 3.46 µM; that for `COCCN(Cc1cc2cc(C)ccc2n2nnnc12)C(=S)Nc1ccccc1C`, 2.73 µM; that for `CCOc1ccc(-c2nnc3ccc(SCC(=O)Nc4nc5ccc(C)cc5s4)nn23)cc1`, 7.12 µM.
The result for `O=C(Nc1nnc(SCc2ccccc2)s1)c1cc2c(s1)CCCC2` reads 2.33 µM; that for `CC(=O)c1ccc(N2CCN(c3ccc4cc(S(=O)(=O)N5CCC(C)CC5)ccc4n3)CC2)cc1`, 8.62 µM.
`CCc1nnc(NC(=O)c2oc3ccc(Br)cc3c2C)s1`: the IC50 was 6.22 µM.
`O=c1c2ccccc2[nH]c(=S)n1Cc1ccc2c(c1)OCO2`: the 50% inhibitory concentration (IC50) was 2.5 µM.
In the case of `CCN1C(=O)CSC1=NC1C2CC3CC(C2)CC1C3` (stereo unspecified), the half-maximal inhibitory concentration (IC50) was 4.66 µM.
The result for `Cc1cc(=O)oc2cc(NC(=O)c3cccc(F)c3)ccc12` reads 1.02 µM; that for `CCOC(=O)CSc1nc2cc3c(cc2cc1C#N)OCO3`, > 40 µM (inactive); that for `CCOc1ccc(N=Nc2c(=O)[nH]n3c(=O)cc(C)[nH]c23)cc1`, > 40 µM (inactive).
The result for `CCC(C)NC(=O)Cc1c(OC)ccc2cc(Br)ccc12` (stereo unspecified) reads 8.21 µM; that for `CCOc1ccc2nc(N=Nc3c(O)[nH]c(=S)[nH]c3=O)sc2c1`, > 40 µM (inactive); that for `Cc1cc(N2CCCC2)ccc1/C=C1\NC(=S)N(C)C1=O`, “inactive”.
